In patent US6987114B1, “Antiviral pyrimidinedione derivatives and process for the preparation thereof” (Samjin Pharmaceutical Co., Ltd, priority 1999, dated 2006) one finds CD50, melting point and EC50 data, which are given here for 19 compounds.

Data set [1] relates to mock-infected MT-4 cells. Briefly: Cytotoxicity based on viability of mock-infected host cells (MTT method). The data set is classed as cell-based. To be noted: mock-infected MT-4 cells, MTT method, 4 or 5 days at 37° C. Put shortly: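 Mock-infected MT-4 cells at 2.5×10^5 cells/ml were exposed to various concentrations of test compound, run in parallel with HIV-infected (1000 CCID50) cultures. After 4 or 5 days at 37° C., host-cell viability was read by MTT.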

Data set [2] relates to HIV. Briefly: microbe, parasite or virus in culture. It counts as cell-based. Put shortly: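 MT-4 cells (2.5×10^5 cells/ml) infected with 1000 CCID50 HIV, added at once to compound dilutions, incubated 4 or 5 days at 37° C. Protection from virus-induced cytopathic effect read by MTT; cytotoxicity from MTT viability of mock-infected cells in parallel.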
Where [3] appears, read: Human immunodeficiency virus 1, MT4, read-out: ED50.
[4] abbreviates: Human immunodeficiency virus 1, MT4, HIV-infected MT-4 cells, MTT method, 4 or 5 days at 37° C., read-out: ED50 (the source's name).

Each structure is given as a SMILES string. In brackets after ≈: the same amount, converted by molar mass. Where two headings read alike, the source gives them in different places.

`Cc1cc(C)cc(C(=O)c2c(C(C)C)c(=O)[nH]c(=O)n2Cc2cc(Cl)cc(Cl)c2)c1` [Example 84, 1-(3,5-Dichlorobenzyl)-5-isopropyl-6-(3,5-dimethylbenzoyl)-2,4-pyrimidinedione] had a melting point of 220 to 222 °C. This compound gave a CD50 in data set [1] of 7.88 µg/mL. In data set [2] (setting [3]), the EC50 was 0.024 µg/mL (≈ 0.0539 µM).
Regarding `CCc1c(Sc2cc(C)cc(C)c2)n(Cc2cc(Br)cc(Br)c2)c(=O)[nH]c1=O` [Example 85, 1-(3,5-Dibromobenzyl)-5-ethyl-6-(3,5-dimethylphenyl)thio-2,4-pyrimidinedione], the melting point lay in the range of 214 to 215 °C. The CD50 in data set [1] was 13.17 µg/mL. The EC50 in data set [2] (setting [3]) came out at 0.13 µg/mL (≈ 0.248 µM).
For `Cc1cc(C)cc(Sc2c(C(C)C)c(=O)[nH]c(=O)n2Cc2cc(Br)cc(Br)c2)c1` [Example 86, 1-(3,5-Dibromobenzyl)-5-isopropyl-6-(3,5-dimethylphenyl)thio-2,4-pyrimidinedione], in that order: 225 to 226 °C, 2.11 µg/mL and 0.094 µg/mL (≈ 0.175 µM).
For `CCc1c(Oc2cc(C)cc(C)c2)n(Cc2cc(Br)cc(Br)c2)c(=O)[nH]c1=O` [Example 87, 1-(3,5-Dibromobenzyl)-5-ethyl-6-(3,5-dimethylphenoxy)-2,4-pyrimidinedione], in that order: 210 to 211 °C, greater than 100.00 µg/mL and 2.05 µg/mL (≈ 4.03 µM).
For `Cc1cc(C)cc(Oc2c(C(C)C)c(=O)[nH]c(=O)n2Cc2cc(Br)cc(Br)c2)c1` [Example 88, 1-(3,5-Dibromobenzyl)-5-isopropyl-6-(3,5-dimethylphenoxy)-2,4-pyrimidinedione], in that order: 244 to 246 °C, greater than 100.00 µg/mL and 0.42 µg/mL (≈ 0.804 µM).
Consider `CCc1c(C(=O)c2cc(C)cc(C)c2)n(Cc2cc(Br)cc(Br)c2)c(=O)[nH]c1=O` [Example 89, 1-(3,5-Dibromobenzyl)-5-ethyl-6-(3,5-dimethylbenzoyl)-2,4-pyrimidinedione], for which the melting point was 234 to 236 °C. Also, in data set [1], the CD50 came out at 8.75 µg/mL. Further, the EC50 in data set [2] (setting [3]) came to 0.09 µg/mL (≈ 0.173 µM).
For `Cc1cc(C)cc(C(=O)c2c(C(C)C)c(=O)[nH]c(=O)n2Cc2cc(Br)cc(Br)c2)c1` [Example 90, 1-(3,5-Dibromobenzyl)-5-isopropyl-6-(3,5-dimethylbenzoyl)-2,4-pyrimidinedione], in that order: 223 to 225 °C, 8.90 µg/mL and 0.12 µg/mL (≈ 0.225 µM).
For `CCc1c(Sc2cc(C)cc(C)c2)n(Cc2c3ccccc3cc3ccccc23)c(=O)[nH]c1=O` [Example 97, 1-(Anthracen-9-ylmethyl)-5-ethyl-6-(3,5-dimethylphenyl)thio-2,4-pyrimidinedione], in that order: 219 to 220 °C, 0.59 µg/mL and greater than 0.59 µg/mL.
For `Cc1cc(C)cc(Sc2c(C(C)C)c(=O)[nH]c(=O)n2Cc2c3ccccc3cc3ccccc23)c1` [Example 98, 1-(Anthracen-9-ylmethyl)-5-isopropyl-6-(3,5-dimethylphenyl)thio-2,4-pyrimidinedione], in that order: 129 to 131 °C, 1.75 µg/mL and greater than 1.75 µg/mL.
`CCc1c(Oc2cc(C)cc(C)c2)n(Cc2c3ccccc3cc3ccccc23)c(=O)[nH]c1=O` [Example 99, 1-(Anthracen-9-ylmethyl)-5-ethyl-6-(3,5-dimethyl-phenoxy)-2,4-pyrimidinedione] yielded a melting point of 243 to 245 °C. For the same compound, the CD50 in data set [1] was found to be 4.12 µg/mL. In addition, the EC50 in data set [2] (setting [3]) was greater than 4.12 µg/mL.
For `Cc1cc(C)cc(Oc2c(C(C)C)c(=O)[nH]c(=O)n2Cc2c3ccccc3cc3ccccc23)c1` [Example 100, 1-(Anthracen-9-ylmethyl)-5-isopropyl-6-(3,5-dimethyl-phenoxy)-2,4-pyrimidinedione], in that order: 224 to 226 °C, 2.02 µg/mL and greater than 2.02 µg/mL.
`CCc1c(C(=O)c2cc(C)cc(C)c2)n(Cc2c3ccccc3cc3ccccc23)c(=O)[nH]c1=O` [Example 101, 1-(Anthracen-9-ylmethyl)-5-ethyl-6-(3,5-dimethyl-benzoyl)-2,4-pyrimidinedione] returned a melting point of 270 to 272 °C. In data set [1], this compound returned a CD50 of 0.94 µg/mL. Besides, the EC50 in data set [2] (setting [3]) is greater than 0.94 µg/mL.
For `Cc1cc(C)cc(C(=O)c2c(C(C)C)c(=O)[nH]c(=O)n2Cc2c3ccccc3cc3ccccc23)c1` [Example 102, 1-(Anthracen-9-ylmethyl)-5-isopropyl-6-(3,5-dimethyl-benzoyl)-2,4-pyrimidinedione], in that order: 273 to 275 °C, 4.44 µg/mL and greater than 4.44 µg/mL.
Compound `CCc1c(Sc2cc(C)cc(C)c2)n(Cc2ccc3c(c2)C(=O)c2ccccc2C3=O)c(=O)[nH]c1=O` [Example 103, 1-(Anthraquinon-2-ylmethyl)-5-ethyl-6-(3,5-dimethyl-phenyl)thio-2,4-pyrimidinedione] returned a melting point of 195 to 197 °C. In data set [1], this compound showed a CD50 of 85.19 µg/mL. Moreover, the EC50 in data set [2] (setting [4]) is greater than 85.2 µg/mL.
`Cc1cc(C)cc(Sc2c(C(C)C)c(=O)[nH]c(=O)n2Cc2ccc3c(c2)C(=O)c2ccccc2C3=O)c1` [Example 104, 1-(Anthraquinon-2-ylmethyl)-5-isopropyl-6-(3,5-dimethyl-phenyl)thio-2,4-pyrimidinedione] had a melting point of 120 to 122 °C. Moreover, in data set [1], the CD50 is greater than 100.00 µg/mL. For the same compound, the EC50 in data set [2] (setting [4]) was greater than 100 µg/mL.
For `CCc1c(Oc2cc(C)cc(C)c2)n(Cc2ccc3c(c2)C(=O)c2ccccc2C3=O)c(=O)[nH]c1=O` [Example 105, 1-(Anthraquinon-2-ylmethyl)-5-ethyl-6-(3,5-dimethylphenoxy)-2,4-pyrimidinedione], in that order: 233 to 235 °C, 5.30 µg/mL and 0.52 µg/mL (≈ 1.08 µM).
For `Cc1cc(C)cc(Oc2c(C(C)C)c(=O)[nH]c(=O)n2Cc2ccc3c(c2)C(=O)c2ccccc2C3=O)c1` [Example 106, 1-(Anthraquinon-2-ylmethyl)-5-isopropyl-6-(3,5-dimethylphenoxy)-2,4-pyrimidinedione], in that order: 246 to 248 °C, 9.49 µg/mL and 0.49 µg/mL (≈ 0.991 µM).
For `CCc1c(C(=O)c2cc(C)cc(C)c2)n(Cc2ccc3c(c2)C(=O)c2ccccc2C3=O)c(=O)[nH]c1=O` [Example 107, 1-(Anthraquinon-2-ylmethyl)-5-ethyl-6-(3,5-dimethylbenzoyl)-2,4-pyrimidinedione], in that order: 143 to 146 °C, 2.38 µg/mL and 0.026 µg/mL (≈ 0.0528 µM).
For `Cc1cc(C)cc(C(=O)c2c(C(C)C)c(=O)[nH]c(=O)n2Cc2ccc3c(c2)C(=O)c2ccccc2C3=O)c1` [Example 108, 1-(Anthraquinon-2-ylmethyl)-5-isopropyl-6-(3,5-dimethylbenzoyl)-2,4-pyrimidinedione], the melting point fell in the range of 156 to 158 °C. The compound further displayed a CD50 in data set [1] of 14.41 µg/mL. Further, the EC50 in data set [2] (setting [4]) turned out to be 0.017 µg/mL (≈ 0.0336 µM).
